Test results published in US10434193B2, “Composition for use in medical imaging and a method for preparing thereof” (Jacobson Research Laboratory Limited, priority 2017, dated 2019).

Experiment: Determination of relaxivities r1 and r2 of contrast agents under MRI
Format: physicochemical
Description: During an MRI study, an MRI contrast agent generally shortens the value of a characteristic time constant known as the relaxation time of the nearby water protons at the tissues being examined to thereby enhance contrast of the image. The relaxivity of a contrast agent reflects how the relaxation rates of a solution change as a function of concentration [C]. Since a contrast agent may individually affect two relaxation rates (1/ΔT1 and 1/ΔT2), the degree of contrast as provided by a contrast agent is generally characterized under two corresponding relaxivities, i.e. r1 and r2 (L/mmol-s), which are defined by: 1/ΔT1=r1·[C] and 1/ΔT2=r2·[C]
The relaxation rates of a contrast agent in solution are obtained by graphing changes in relaxation rates (1/ΔT1) and (1/ΔT2) at different concentrations, with r1 and r2 being determined by the slopes of the graph.
For each of the contrast agents being tested, samples have been prepared in 10 different concentrations, namely, 1000 μg/ml, 750 μg/ml, 500 μg/ml, 250 μg/ml, 125 μg/ml, 62.50 μg/ml, 31.25 μg/ml, 15.63 μg/ml, 7.81 μg/ml and 3.91 μg/ml using DMF:H2O 4:1 as solvent for dilution of the respective stock samples.

[1] = 10 concentrations 3.91-1000 μg/ml in DMF:H2O 4:1

Compound | r1 [1] [mL/µg/s] | r1 (molecular weight adjusted) [L/mmol/s]
[Cl][Gd]([Cl])[Cl] [GdCl3] | 0.0494 | 13.0416
O=[N+]([O-])[O-].O=[N+]([O-])[O-].O=[N+]([O-])[O-].[Fe+3] [Fe(NO3)3, iron nitrate] | 0.0004 | 0.0968
